# From patent US20220378790A1, “PHARMACEUTICAL PREPARATION COMPRISING AN AMIDE DERIVATIVE INHIBITING THE GROWTH OF CANCER CELL AND A PHARMACEUTICAL PRODUCT CONTAINING THE SAME” (Hanmi Pharm Co., Ltd., priority 2019, published 2022)
# Test: Stability test at 60° C. severe condition, impurity IV
# Type: physicochemical
# Procedure: The stability of the tablets of Examples 6 to 9 and Comparative Example 9 above was evaluated. In addition, the stability was evaluated using HM781-36B itself as Comparative Example 11.
# Specifically, each of the tablets of Examples 6 to 9 and Comparative Example 9 above was packaged with Formpack® Dessiflex Blister (where to get: amcor), and the HM781-36B of Comparative Example 11 was packaged in an HDPE bottle, and then these were stored for 1, 2, and 4 weeks at a temperature of 60° C., which is a severe condition. The stability evaluation was performed for the samples stored for the above period according to the analysis conditions of Experimental Example 6.
compound,measurement,setting,value
C=CC(=O)N1CCC(Oc2cc3c(Nc4ccc(Cl)c(Cl)c4F)ncnc3cc2OC)CC1 [Comparative Example 11],Amount of Impurity IV,"1 week, 60° C.",0.06%
same,Amount of Impurity IV,"2 weeks, 60° C.",0.07%
same,Stability (in words),"4 weeks under severe conditions, 60° C.",very stable results
same,Amount of Impurity IV,"4 weeks, 60° C.",0.07%
same,Amount of Impurity IV,"Initial, tablets in Formpack Dessiflex Blister, HM781-36B in HDPE bottle",0.06%
